Experimental data from US20240368174A1, “Antiviral Heterocyclic Compounds” (Enanta Pharmaceuticals, Inc., priority 2023, published 2024).

Assays:
[1] = system: HMPV clinical isolate A2 strain TN 94-49; test: HMPV antiviral assay, Method 1 (LLC-MK2 cells, ATP-Lite); format: cell-based; settings: human metapneumovirus, hMPV A2 TN/94-49, LLC-MK2 cells
Outline: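 LLC-MK2 cells (5,000/well) infected in suspension with HMPV A2 TN 94-49 at MOI 0.005 in serum-free OptiMEM with 2 μg/mL final TPCK-trypsin, compounds in duplicate from 2 μM top, 2.5-fold, 10 points. After 7 days at 37° C, cell health by ATP-Lite luminescence normalised to virus and cell controls; EC50 from four-parameter fit.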

[2] = system: HMPV clinical isolate A2 strain TN 94-49; test: HMPV antiviral assay, Method 2 (LLC-MK2 cells with CP-100-356, ATP-Lite); format: cell-based; settings: human metapneumovirus; hMPV A2 TN/94-49, LLC-MK2 cells with CP-100-356, Method 2
Outline: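 LLC-MK2 rhesus kidney cells (5,000/well) infected in suspension with HMPV A2 TN 94-49 at MOI 0.16, in serum-free medium with final 2 μg/mL TPCK-trypsin and 2 μM CP-100-356. Compounds tested in duplicate from 200 nM, 2.5-fold, 10 points; 7 days at 37 °C. Cell health by ATP-Lite luminescence; EC50 by four-parameter fit.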

SMILES | EC50 [1] [nM] | EC50 [2] [nM]
COc1cc(C(=O)NC[C@@](O)(c2ccccc2)c2cc3c(c(-c4cccc(Cl)c4Cl)n2)OC[C@]3(C)C(N)=O)cc2cn(C3CC3)nc12 [Example 260] | < 500 | < 200
C[C@@H](O)COc1cc(C(=O)NC[C@](O)(c2cc3c(c(-c4ccc(F)c(Cl)c4F)n2)OC[C@]3(C)C(N)=O)C2CC2)cc2cn(C3CC3)nc12 [Example 38] | > 500 | < 200
COc1cc(C(=O)NC[C@](O)(c2cc3c(c(-c4cc(Cl)c(F)cc4F)n2)OC[C@]3(C)C(N)=O)C2CC2)cn2cc(C3CC3)nc12 [Example 77] | < 500 | < 200
COc1cc(C(=O)NC[C@@](O)(c2ccccc2)c2cc3c(c(-c4cc(Cl)c(F)cc4F)n2)OC[C@]3(C)C(N)=O)cc2oc(C3CC3)nc12 [Example 85] | < 500 | < 200
COc1cc(C(=O)NC[C@@](O)(c2ccccc2)c2cc3c(c(-c4cc(Cl)ccc4F)n2)OC[C@]3(C)C(N)=O)cc2cn(C3CC3)nc12 [Example 144] | < 500 | < 200
COc1cc(C(=O)NC[C@@](O)(c2ccccc2)c2cc3c(c(-c4cc(F)c(F)cc4F)n2)OC[C@]3(C)C(N)=O)cc2cn(C(F)F)nc12 [Example 172] | < 500 | < 200
C[C@]1(C(N)=O)COc2c1cc([C@@](O)(CNC(=O)c1cc(OC3CC3)c3nn(C4(F)CC4)cc3c1)C1CC1)nc2-c1cc(Cl)c(F)cc1F [Example 5] | < 500 | < 200
COc1cc(C(=O)NC[C@@](O)(c2ccccc2)c2cc3c(c(-c4cc(Cl)c(F)cc4F)n2)OC[C@]3(C)C(N)=O)cc2sc(N)nc12 [Example 157] | < 500 | < 200
COc1cc(C(=O)NC[C@@](O)(c2cccc(F)c2)c2cc3c(c(-c4ccc(F)c(Cl)c4Cl)n2)OC[C@]3(C)C(N)=O)cc2cn(C(F)F)nc12 [Example 270] | < 500 | < 200
COc1cc(C(=O)NC[C@@](O)(c2cccnc2)c2cc3c(c(-c4cc(Cl)c(F)cc4F)n2)OC[C@]3(C)C(N)=O)cc2cn(C3CC3)nc12 [Example 131] | < 500 | < 200
C[C@]1(C(N)=O)COc2c1cc([C@@](O)(CNC(=O)c1ccc3nc(C4CC4)oc3c1)c1ccccc1)nc2-c1cc(Cl)c(F)cc1F [Example 88] | < 500 | < 200
C[C@]1(C(N)=O)COc2c1cc([C@@](O)(CNC(=O)c1cc(OC3CC3)c3nc(C4CC4)sc3c1)C1CC1)nc2-c1cc(Cl)c(F)cc1F [Example 3] | < 500 | < 200
COc1cc(C(=O)NC[C@@](O)(c2cccc(F)c2)c2cc3c(c(-c4cc(Cl)c(F)cc4F)n2)OC[C@]3(C)C(N)=O)cc2cc(C3CC3)nn12 [Example 133] | < 500 | < 200
COc1cc(C(=O)NC[C@@](O)(c2cccc(F)c2)c2cc3c(c(-c4ccc(F)c(Cl)c4Cl)n2)OC[C@]3(C)C(N)=O)cc2oc(C3CC3)nc12 [Example 280] | < 500 | < 200
COc1cc(C(=O)NC[C@@](O)(c2ccc(C(F)(F)F)cc2)c2cc3c(c(-c4cc(Cl)c(F)cc4F)n2)OC[C@]3(C)C(N)=O)cc2cn(C3CC3)nc12 [Example 130] | > 500 | > 200
COc1cc(C(=O)NC[C@@](O)(c2ccc(F)cc2)c2cc3c(c(-c4cc(Cl)c(F)cc4F)n2)OC[C@]3(C)C(N)=O)cc2cn(C3(F)CC3)nc12 [Example 14] | < 500 | < 200
COc1cc(C(=O)NC[C@](O)(c2cc3c(c(-c4cc(F)c(F)cc4F)n2)OC[C@]3(C)C(N)=O)C2CC(F)(F)C2)cc2cn(C(F)F)nc12 [Example 33] | > 500 | < 200
Cc1cnc2c(OC(F)F)cc(C(=O)NC[C@@](O)(c3ccccc3)c3cc4c(c(-c5cc(Cl)c(F)cc5F)n3)OC[C@]4(C)C(N)=O)cc2c1 [Example 183] | < 500 | < 200
COc1cc(C(=O)NC[C@@](O)(c2ccccc2)c2cc3c(c(-c4ccc(F)c(Cl)c4Cl)n2)OC[C@]3(C)C(N)=O)cc2oc(C3CC3)nc12 [Example 278] | < 500 | < 200
COc1cc(C(=O)NC[C@](O)(c2cc3c(c(-c4ccc(F)c(Cl)c4Cl)n2)OC[C@]3(C)C(N)=O)C(F)(F)F)cc2cn(C3CC3)nc12 [Example 65] | < 500 | < 200
CCc1cc(-c2nc([C@@](O)(CNC(=O)c3cc(OC)c4nn(C5CC5)cc4c3)C3CC3)cc3c2OC[C@]3(C)C(N)=O)ccc1F [Example 71] | > 500 | > 200
[2H]C([2H])([2H])NC(=O)[C@@]1(C)COc2c1cc([C@@](O)(CNC(=O)c1cc(OC)c3nn(C4CC4)cc3c1)c1ccccc1)nc2-c1cc(Cl)c(F)cc1F [Example 140] | < 500 | < 200
COc1cc(C(=O)NC[C@@](O)(c2ccccc2)c2cc3c(c(-c4cc(Cl)ccc4F)n2)OC[C@]3(C)C(N)=O)cc2cn(C(F)F)nc12 [Example 145] | < 500 | < 200
COc1cc(C(=O)NC[C@](O)(c2cc3c(c(-c4cc(F)c(F)cc4C)n2)OC[C@]3(C)C(N)=O)C2CC2)cc2cn(C3CC3)nc12 [Example 50] | > 500 | < 200
COc1cc(C(=O)NC[C@](O)(c2cc3c(c(-c4ccc5c(c4)OC(F)(F)O5)n2)OC[C@]3(C)C(N)=O)C2CC2)cc2cc(C)c(F)nc12 [Example 22] | < 500 | < 200
COc1cc(C(=O)NC[C@@](O)(c2ccccc2)c2cc3c(c(-c4cc(F)c(F)cc4F)n2)OC[C@]3(C)C(N)=O)cc2cn(C3CC3)nc12 [Example 171] | < 500 | < 200
COc1cc(C(=O)NC[C@@](O)(c2ccccc2)c2cc3c(c(-c4cc(Cl)c(F)cc4F)n2)OC[C@]3(C)C(N)=O)cc2cc(C3CC3)nnc12 [Example 90] | < 500 | < 200
Cc1nc2c(OC3CC3)cc(C(=O)NC[C@@](O)(c3ccccc3)c3cc4c(c(-c5ccc(F)c(Cl)c5Cl)n3)OC[C@]4(C)C(N)=O)cc2o1 [Example 271] | < 500 | < 200
COc1cc(C(=O)NC[C@@](O)(c2ccc(F)cc2)c2cc3c(c(-c4cc(Cl)c(F)cc4F)n2)OC[C@]3(C)C(N)=O)cc2cn(C3CC3)nc12 [Example 12] | < 500 | < 200

More lines, now with the values ahead:

EC50 [1] [nM] | EC50 [2] [nM] | SMILES
< 500 | < 200 | COc1cc(C(=O)NC[C@@](O)(c2ccccc2)c2cc3c(c(-c4ccc(F)c(Cl)c4Cl)n2)OC[C@]3(C)C(N)=O)cc2cc(C3CC3)nnc12 [Example 290]
< 500 | < 200 | [2H]C([2H])([2H])c1nc2ccc(C(=O)NC[C@@](O)(c3cccc(F)c3)c3cc4c(c(-c5ccc6c(c5Cl)OC(F)(F)O6)n3)OC[C@]4(C)C(N)=O)cc2o1 [Example 282]
< 500 | < 200 | [2H]C([2H])([2H])c1nc2ccc(C(=O)NC[C@@](O)(c3cccc(F)c3)c3cc4c(c(-c5ccc(F)c(Cl)c5Cl)n3)OC[C@]4(C)C(N)=O)cc2o1 [Example 281]
< 500 | < 200 | COc1cc(C(=O)NC[C@](O)(c2cc3c(c(-c4cc(Cl)c(F)cc4F)n2)OC[C@]3(C)C(N)=O)c2cccs2)cc2cn(C3CC3)nc12 [Example 474]
< 500 | < 200 | COc1cc(C(=O)NC[C@](O)(c2cc3c(c(-c4cc(Cl)c(F)cc4F)n2)OC[C@]3(C)C(N)=O)c2nccs2)cc2cn(C3CC3)nc12 [Example 475]
< 500 | < 200 | COc1cc(C(=O)NCC(O)(c2cc3c(c(-c4cc(Cl)c(F)cc4F)n2)OC[C@]3(C)C(N)=O)c2ccc(C)s2)cc2cn(C3CC3)nc12 (stereo partly shown) [Example 470]
< 500 | < 200 | COc1cc(C(=O)NC[C@@](O)(c2ccccc2)c2cc3c(c(-c4cc(C(F)F)c(F)cc4F)n2)OC[C@]3(C)C(N)=O)cc2cn(C3(F)CC3)nc12 [Example 298]
< 500 | < 200 | C[C@]1(C(N)=O)COc2c1cc([C@@](O)(CNC(=O)c1ccc3nc(C4CC4)oc3c1)c1cccc(F)c1)nc2-c1ccc2c(c1Cl)OC(F)(F)O2 [Example 287]
< 500 | < 200 | COc1cc(C(=O)NC[C@@](O)(c2ccccc2)c2cc3c(c(-c4cc(C(F)F)c(F)cc4F)n2)OC[C@]3(C)C(N)=O)cc2oc(C3CC3)nc12 [Example 299]
< 500 | < 200 | COc1cc(C(=O)NC[C@@](O)(c2cccc(F)c2)c2cc3c(c(-c4cccc(Cl)c4Cl)n2)OC[C@]3(C)C(N)=O)cc2cn(C3(F)CC3)nc12 [Example 291]
< 500 | < 200 | COc1cc(C(=O)NC[C@@](O)(c2cccc(F)c2)c2cc3c(c(-c4cccc(Cl)c4Cl)n2)OC[C@]3(C)C(N)=O)cc2oc(C3CC3)nc12 [Example 292]
< 500 | < 200 | COc1cc(C(=O)NC[C@@](O)(c2cccc(F)c2)c2cc3c(c(-c4cccc(Cl)c4Cl)n2)OC[C@]3(C)C(N)=O)cc2oc(C)nc12 [Example 293]
< 500 | < 200 | COc1cc(C(=O)NC[C@@](O)(c2cccc(F)c2)c2cc3c(c(-c4cc(C(F)(F)F)c(F)cc4F)n2)OC[C@]3(C)C(N)=O)cc2oc(C3CC3)nc12 [Example 297]
> 500 | < 200 | COc1cc(C(=O)NCC(O)(c2cc3c(c(-c4cc(Cl)c(F)cc4F)n2)OC[C@]3(C)C(N)=O)c2cc(C(F)F)cs2)cc2cn(C3CC3)nc12 (stereo partly shown) [Example 468]
< 500 | < 200 | COc1cc(C(=O)NC[C@@](O)(c2ccccn2)c2cc3c(c(-c4cc(Cl)c(F)cc4F)n2)OC[C@]3(C)C(N)=O)cc2cn(C3CC3)nc12 [Example 463]
